In patent publication US20250312320A1, “METHOD AND TREATMENT FOR OSTEOARTHRITIS AND DISEASES OF CHONDROCYTE HYPERTROPHY” (The Royal Veterinary College, priority 2022, published 2025):
“Also recorded” adds a separate entry of the source.

Assays:
Type in all cases: cell-based, mouse
[1] = system: C57/BL-6 bone marrow derived osteoclasts; assay: Primary osteoclast number and resorption on dentin discs; settings: 1 μM, N=8
Protocol: Osteoclasts were isolated from the bone marrow of the long bones of 8-week old C57/BL-6 mice and cultured for 24 hours in osteoclast basal media (MEM supplemented with 10% FBS, 2 mM L-glutamine, 1% Ab/Am). After 24 hours, 1×10^6 osteoclasts were seeded onto dentin discs in osteoclast differentiation media (basal media supplemented with 100 nM PGE2, 200 ng/ml MCSF, 3 ng/ml RANKL pH 7.3) for 24 hours before addition of 1 μM BI1347 or DMSO for 3 days (N=8). On day 5 of culture, osteoclast resorption was initiated by addition of 10 mM hydrochloric acid to acidify differentiation media to pH 7.0 for 2 days. On day 7, discs were fixed in 2.5% glutaraldehyde, tartrate resistant acid phosphatase (TRAP) stained and imaged using Axiovert Microscope at ×10 magnification to observe osteoclast resorption.
Pre-osteoclast and osteoclast numbers were counted using the automated counting method developed by Davies et al. 2021 (currently under review) using Ilastik software in Image J (Fiji, US). Resorption area on each disc was manually counted and analysed using Image J software.

[2] = system: ATDC5 micromasses; assay: Epigenetic library screen on miniaturised ATDC5 micromasses (alcian blue / alizarin red)
Source text: An epigenetic library consisting of 226 known epigenetic modulator compounds was used to screen against ATDC5 high density micromass cultures to identify any compounds that have an inhibitory effect on matrix mineralisation (catabolic chondrocyte) whilst maintaining and/or promoting healthy extracellular matrix deposition (anabolic chondrocyte). The opposite may be used for identifying molecules that accelerate endochondral ossification for fracture repair i.e. promotes matrix mineralisation.
In the developed screening method, 5.4×10^4 cells in a total volume of 2 μl standard growth media (DMEM-F12, 5% FBS, 1% Ab/Am 10 μg/ml human transferrin, 3×10^−8 M sodium selenite) were seeded onto single wells of a 96-well plate and incubated at 37° C., 5% CO2 in a humidified incubator for 2 hours to allow for cell adherence. 100 μl of differentiation media DMEM-F12, 5% FBS, 1% Ab/Am, 5 μg/ml human transferrin, 1×ITS) containing a single compound was added to each well.
Plates were seeded in duplicate to allow for observation each compound has on glycosaminoglycan and mineral deposition at the end of the culture. This enabled for one 96-well plate to screen up to 96 compounds individually. Multiple plates were set up at the same time allowing the entire library to be screened in parallel. […]
On day 14, culture plates were fixed with 95% ice-cold methanol for 25 minutes and each compound treated well stained with either 1% alcian blue pH 2.5, a stain for glycosaminoglycans indicative of healthy ECM or 1% alizarin red pH 4.2, a stain for mineralisation (calcium) indicative of chondrocyte hypertrophy observed in cartilage disease. Alcian blue stained wells were leached with 8M guanidine hydrochloride and alizarin red leached with 10% cetylpyridinium chloride to quantify staining by absorbance 650 nm and 570 nm, respectively. Leached stain absorbances were plotted on GraphPad Prism for each compound for both alizarin red and alcian blue. To identify hits, the alcian blue:alizarin red ratio was plotted and readings higher than the control group ratios were classified as hits. […]

[3] = system: ATDC5 micromasses; assay: RNA sequencing of BI1347 treated ATDC5 micromasses; settings: 1 μM vs DMSO
Protocol: 2.7×10^5 ATDC5 cells were seeded in a 10 μl micromasses and differentiated in the presence of 1 μM BI1347 or DMSO control for 7 days before RNA extraction as previously described. Two wells were pooled per extraction and treatment conditions were set up in triplicate.
Total RNA quantification and integrity was determined via Bioanalyzer 2100 (Agilent) and RNA samples with an integrity number above 9.0 were processed for RNA sequencing.
The RNA library was formed by polyA capture using poly-T oligo attached magnetic beads and subsequently reverse transcribed for cDNA synthesis and library construction. The library was then sequenced using the Illumina PE150 technology and clean reads with high quality data were taken forward for downstream analysis. Paired-end clean reads were aligned to the Mus Musculus reference genome and reads numbers mapped to each gene. Fragments Per Kilobase of transcript sequence per Millions base pairs sequenced (FPKM) of each gene was calculated based on the length of the gene and reads count mapped to the gene.
Differential expression analysis of BI1347 treatment versus DMSO control was performed. Genes with an adjusted P-value≤0.05 and a fold change≥2 were considered differentially expressed.
Cluster analysis was carried out on all the differentially expressed genes in each group and biological replicate using hierarchical clustering to cluster the FPKM values of genes.
Genes of interest relating to chondrocyte hypertrophy and cartilage homeostasis were identified.

[4] = compound present 14 days, compared to negative control BI1374 and DMSO

CN(C)C(=O)Cn1cc(-c2ccc(-c3cncc4ccccc34)cc2)cn1 [BI1347]
mature osteoclast number vs DMSO [1]: no effect; also recorded: no change | osteoclast resorptive activity, reduction vs DMSO [1]: 2.3 fold | pre-osteoclast number vs DMSO [1]: no effect; also recorded: no change | glycosaminoglycan (GAG) deposition (alcian blue) [2, 4]: promotes glycosaminoglycan (GAG) deposition | mineralisation (alizarin red) [2, 4]: reduces mineralisation | alcian blue:alizarin red absorbance ratio (hit identification) ([2]; vs window of DMSO control ratios): modulator of endochondral ossification | enrichment of downregulated biological process: innate immune response ([3]; day 7, Gene Ontology): 3 fold | enrichment of downregulated biological process: response to cytokines ([3]; day 7, Gene Ontology): 3 fold | enrichment of downregulated biological process: response to interferon-beta ([3]; day 7, Gene Ontology): 15 fold | enrichment of upregulated biological process: Chondrocyte differentiation ([3]; day 7, Gene Ontology): 6 fold | enrichment of upregulated biological process: Collagen fibril organisation ([3]; day 7, Gene Ontology): 10 fold | enrichment of upregulated biological process: cartilage development ([3]; day 7, Gene Ontology): 5.5 fold | enrichment of upregulated biological process: extracellular matrix organisation ([3]; day 7, Gene Ontology): 5 fold | Log2 Fold Change ACAN ([3]; RNA-Seq, day 7): 2.40 | Log2 Fold Change ADAMT S4 ([3]; RNA-Seq, day 7): −1.58 | Log2 Fold Change AXIN2 ([3]; RNA-Seq, day 7): −2.38 | Log2 Fold Change BARX2 ([3]; RNA-Seq, day 7): 6.42 | Log2 Fold Change BGLAP ([3]; RNA-Seq, day 7): −1.42 | Log2 Fold Change COL2A1 ([3]; RNA-Seq, day 7): 2.69 | Log2 Fold Change COL9A3 ([3]; RNA-Seq, day 7): 4.44 | Log2 Fold Change COL 13A1 ([3]; RNA-Seq, day 7): −4.99 | Log2 Fold Change CPA5 ([3]; RNA-Seq, day 7): 7.57 | Log2 Fold Change CPM ([3]; RNA-Seq, day 7): 6.76 | Log2 Fold Change F5 ([3]; RNA-Seq, day 7): 6.76 | Log2 Fold Change FGFR3 ([3]; RNA-Seq, day 7): 1.75 | Log2 Fold Change GALNT17 ([3]; RNA-Seq, day 7): 6.56 | Log2 Fold Change GDF5 ([3]; RNA-Seq, day 7): 2.39 | Log2 Fold Change GREM1 ([3]; RNA-Seq, day 7): 1.68 | Log2 Fold Change IBSP ([3]; RNA-Seq, day 7): −6.06 | Log2 Fold Change IHH ([3]; RNA-Seq, day 7): −2.65 | Log2 Fold Change IL-6 ([3]; RNA-Seq, day 7): −3.23 | Log2 Fold Change ISG15 ([3]; RNA-Seq, day 7): −6.47 | Log2 Fold Change KLK11 ([3]; RNA-Seq, day 7): 6.45 | Log2 Fold Change MATN1 ([3]; RNA-Seq, day 7): 5.88 | Log2 Fold Change MATN3 ([3]; RNA-Seq, day 7): 5.87 | Log2 Fold Change MEF2C ([3]; RNA-Seq, day 7): −1.58 | Log2 Fold Change NOG ([3]; RNA-Seq, day 7): 2.08 | Log2 Fold Change NOSTRIN ([3]; RNA-Seq, day 7): −2.00 | Log2 Fold Change P2RY10 ([3]; RNA-Seq, day 7): 6.40 | Log2 Fold Change PHLDA2 ([3]; RNA-Seq, day 7): 6.62 | Log2 Fold Change SMOC3 ([3]; RNA-Seq, day 7): 2.71 | Log2 Fold Change SOX5 ([3]; RNA-Seq, day 7): 1.16 | Log2 Fold Change SOX6 ([3]; RNA-Seq, day 7): 1.11 | Log2 Fold Change SOX8 ([3]; RNA-Seq, day 7): 2.65 | Log2 Fold Change TMEM119 ([3]; RNA-Seq, day 7): −4.98 | log2FoldChange GRHL3 ([3]; RNA-Seq, day 7): −7.66 | log2FoldChange MX2 ([3]; RNA-Seq, day 7): −7.03 | log2FoldChange OAS1A ([3]; RNA-Seq, day 7): −7.64 | log2FoldChange OAS2 ([3]; RNA-Seq, day 7): −11.27 | log2FoldChange OAS3 ([3]; RNA-Seq, day 7): −7.22 | log2FoldChange OASL1 ([3]; RNA-Seq, day 7): −10.46 | log2FoldChange RSAD2 ([3]; RNA-Seq, day 7): −7.12 | log2FoldChange SLC36A2 ([3]; RNA-Seq, day 7): −8.53 | log2FoldChange TRIM30D ([3]; RNA-Seq, day 7): −7.12
